Publication PMC6000670, “Dihydropyridines Allosterically Modulate Hsp90 Providing a Novel Mechanism for Heat Shock Protein Co-induction and Neuroprotection” (Frontiers in Molecular Biosciences, 2018)
Like-named read-outs stand apart in the source and are kept apart here.

Legend:
[1] = biological target: yeast Hsp90^273−709 (Saccharomyces cerevisiae, UniProt P02829); experiment: ITC binding to yeast Hsp90 273-709 (middle and C-terminal domain); details: for ΔH / ΔS: ITC, Yeast 273–709
[2] = biological target: human Hsp90α (Homo sapiens, UniProt P07900); experiment: ITC binding to human full-length Hsp90α
[3] = biological target: T1, yeast Hsp90 N-terminal domain (Hsp90^1−220) (Saccharomyces cerevisiae, UniProt P02829); experiment: ITC binding to yeast Hsp90 N-terminal domain; details: isolated N-terminal domain of yeast Hsp90
T1 construct: Hsp90^1−220 (N-terminal domain); made in house

[4] = biological target: T2, yeast Hsp90 (Saccharomyces cerevisiae, UniProt P02829); experiment: Hsp90 ATPase assay
[5] = biological target: Hsp90^1−560 (Saccharomyces cerevisiae, UniProt P02829); experiment: ITC binding to yeast Hsp90 1-560 (N and middle domain); details: Hsp90 1−560, N- and middle-domain of yeast Hsp90
[6] = biological target: yeast Hsp90-ADP complex (Saccharomyces cerevisiae, UniProt P02829); experiment: ITC binding to yeast Hsp90-ADP complex
[7] = biological target: yeast Hsp90–AMPPNP complex (Saccharomyces cerevisiae, UniProt P02829); experiment: ITC binding to yeast Hsp90-AMPPNP complex
[8] = biological target: human Hsp90β (Homo sapiens, UniProt P08238); experiment: ITC binding to human full-length Hsp90β
[9] = biological target: T2, yeast Hsp90; experiment: Citrate synthase aggregation assay
[10] = biological target: yeast Hsp90-P661R (Saccharomyces cerevisiae, UniProt P02829, P661R); experiment: ITC binding to yeast Hsp90 mutant P661R
[11] = biological target: Hsp90-AMPPNP-Sba1 complex (Saccharomyces cerevisiae, UniProt P02829); experiment: ITC binding to Hsp90-AMPPNP-Sba1 complex
[12] = test system: Hsp90; experiment: Refolding of denatured luciferase in rabbit reticulocyte lysate; format: biochemical
Method: QuantiLum Luciferase (Promega E170A) was diluted to 100 ug/mL in 25 mM Tricine pH 7.8, containing 10 mM MgCl2, 1 mM DTT, 0.1 mM EDTA, 10% glycerol, and 100 mg/mL BSA (sigma 05470) and denatured at 44°C for 30 min. […] Refolding of luciferase was determined by removing 2 μL aliquots of the rabbit reticulocyte mix at 0, 15, 30 45, 60, 90, and 120 min and adding this to 48 μL of Briglt-Glo^TM reconstituted reagent (Promega, E2610), which contains buffer, substrate and ATP required for luciferase activity, as instructed by the manufacturer. Luminescence was measured in a CLARIOstar^R microplate reader using half area 96 well flat bottom plates.

[13] = biological target: T2, yeast Hsp90; experiment: ITC binding to yeast full-length Hsp90
[14] = biological target: human Hsp72 (Homo sapiens, UniProt P0DMV8); experiment: ITC binding to human Hsp72; details: 1 mM LA1011 into 60 μM human Hsp72
[15] = test system: APPxPS1 transgenic mouse model of AD; set-up: method as in Kasza et al., 2016; details: ref Kasza et al., 2016, cited from earlier work
[16] = biological target: human Hsp90α N-terminal domain (Hsp90^9−236) (Homo sapiens, UniProt P07900); experiment: ITC binding to human Hsp90α N-terminal domain; details: isolated N-terminal domain of human Hsp90α
[17] = biological target: yeast Hsp90^546−709 (Saccharomyces cerevisiae, UniProt P02829); experiment: ITC binding to yeast Hsp90 546-709 (C-terminal domain)
[18] = test system: SH-SY5Y human neuroblastoma cell line; set-up: method as in Kasza et al., 2016; details: ref Kasza et al., 2016; cited from earlier work
[19] = biological target: T2, yeast Hsp90; set-up: pRSETA was used to express yeast full–length Hsp90; made in house; method as in Prodromou et al., 1999; details: Sti1 to yeast Hsp90 without LA1011; ref Prodromou et al., 1999; cited from earlier work
[20] = 2 μM yeast Hsp90, non-inhibited turnover 1.2 per min

T2 sequence (P02829 whole entry, the tested form may be a part): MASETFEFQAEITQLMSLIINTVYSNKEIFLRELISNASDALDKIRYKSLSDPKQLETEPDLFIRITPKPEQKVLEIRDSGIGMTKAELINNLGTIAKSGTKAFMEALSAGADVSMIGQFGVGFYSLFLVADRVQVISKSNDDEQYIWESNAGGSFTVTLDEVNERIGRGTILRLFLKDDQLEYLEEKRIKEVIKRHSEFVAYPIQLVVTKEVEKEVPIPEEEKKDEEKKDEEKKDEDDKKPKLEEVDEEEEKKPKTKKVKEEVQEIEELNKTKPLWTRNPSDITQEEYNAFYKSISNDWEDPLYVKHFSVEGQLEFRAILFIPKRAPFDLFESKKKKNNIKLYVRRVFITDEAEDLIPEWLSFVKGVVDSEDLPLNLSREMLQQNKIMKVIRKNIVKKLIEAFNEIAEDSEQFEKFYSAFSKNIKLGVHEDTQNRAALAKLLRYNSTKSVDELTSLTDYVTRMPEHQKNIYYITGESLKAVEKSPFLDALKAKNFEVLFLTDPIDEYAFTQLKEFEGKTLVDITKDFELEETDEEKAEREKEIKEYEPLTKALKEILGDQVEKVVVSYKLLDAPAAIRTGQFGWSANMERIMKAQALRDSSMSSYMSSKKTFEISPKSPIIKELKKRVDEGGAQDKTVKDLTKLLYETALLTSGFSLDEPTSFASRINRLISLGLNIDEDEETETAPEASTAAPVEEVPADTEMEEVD
Sequence of yeast Hsp90^546−709 (P02829 546-709): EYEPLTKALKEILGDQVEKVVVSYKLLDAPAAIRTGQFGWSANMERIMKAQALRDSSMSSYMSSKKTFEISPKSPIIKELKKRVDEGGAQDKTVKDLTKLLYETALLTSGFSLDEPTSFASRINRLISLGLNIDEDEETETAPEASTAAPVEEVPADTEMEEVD
Sequence of yeast Hsp90^273−709 (P02829 273-709): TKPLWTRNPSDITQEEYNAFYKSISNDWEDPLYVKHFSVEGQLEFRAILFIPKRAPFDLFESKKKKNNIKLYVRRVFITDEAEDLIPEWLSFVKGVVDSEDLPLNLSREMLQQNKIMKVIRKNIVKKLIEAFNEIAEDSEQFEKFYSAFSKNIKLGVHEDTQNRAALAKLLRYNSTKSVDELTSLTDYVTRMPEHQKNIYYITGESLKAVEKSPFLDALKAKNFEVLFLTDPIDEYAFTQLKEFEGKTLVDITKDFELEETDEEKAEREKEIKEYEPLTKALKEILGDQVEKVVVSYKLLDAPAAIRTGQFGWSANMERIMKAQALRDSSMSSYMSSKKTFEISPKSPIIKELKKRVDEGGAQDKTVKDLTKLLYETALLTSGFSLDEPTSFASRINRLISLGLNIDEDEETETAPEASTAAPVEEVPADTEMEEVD
Sequence of human Hsp90β (P08238 whole entry): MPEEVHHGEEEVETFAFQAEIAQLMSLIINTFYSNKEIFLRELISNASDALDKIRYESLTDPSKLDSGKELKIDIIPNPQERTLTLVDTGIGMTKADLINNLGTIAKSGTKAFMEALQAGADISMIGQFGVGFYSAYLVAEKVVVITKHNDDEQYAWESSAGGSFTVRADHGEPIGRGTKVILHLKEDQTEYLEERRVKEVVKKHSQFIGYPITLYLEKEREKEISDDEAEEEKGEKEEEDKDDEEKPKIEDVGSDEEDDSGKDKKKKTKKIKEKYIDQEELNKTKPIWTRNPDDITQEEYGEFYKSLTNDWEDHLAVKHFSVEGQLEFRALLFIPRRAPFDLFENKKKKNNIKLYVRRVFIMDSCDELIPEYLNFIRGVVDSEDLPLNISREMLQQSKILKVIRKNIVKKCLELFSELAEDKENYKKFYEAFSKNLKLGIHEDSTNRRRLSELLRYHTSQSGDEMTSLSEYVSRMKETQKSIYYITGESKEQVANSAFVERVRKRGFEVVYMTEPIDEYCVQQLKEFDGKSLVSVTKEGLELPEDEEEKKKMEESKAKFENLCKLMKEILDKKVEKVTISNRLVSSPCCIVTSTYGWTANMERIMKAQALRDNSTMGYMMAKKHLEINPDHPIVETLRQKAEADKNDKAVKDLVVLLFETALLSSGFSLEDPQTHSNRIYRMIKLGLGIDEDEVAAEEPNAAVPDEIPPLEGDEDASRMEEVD
Sequence of yeast Hsp90–AMPPNP complex (P02829 whole entry, one chain of several): as the sequence (P02829 whole entry, the tested form may be a part) above
Sequence of Hsp90^1−560 (P02829 1-560): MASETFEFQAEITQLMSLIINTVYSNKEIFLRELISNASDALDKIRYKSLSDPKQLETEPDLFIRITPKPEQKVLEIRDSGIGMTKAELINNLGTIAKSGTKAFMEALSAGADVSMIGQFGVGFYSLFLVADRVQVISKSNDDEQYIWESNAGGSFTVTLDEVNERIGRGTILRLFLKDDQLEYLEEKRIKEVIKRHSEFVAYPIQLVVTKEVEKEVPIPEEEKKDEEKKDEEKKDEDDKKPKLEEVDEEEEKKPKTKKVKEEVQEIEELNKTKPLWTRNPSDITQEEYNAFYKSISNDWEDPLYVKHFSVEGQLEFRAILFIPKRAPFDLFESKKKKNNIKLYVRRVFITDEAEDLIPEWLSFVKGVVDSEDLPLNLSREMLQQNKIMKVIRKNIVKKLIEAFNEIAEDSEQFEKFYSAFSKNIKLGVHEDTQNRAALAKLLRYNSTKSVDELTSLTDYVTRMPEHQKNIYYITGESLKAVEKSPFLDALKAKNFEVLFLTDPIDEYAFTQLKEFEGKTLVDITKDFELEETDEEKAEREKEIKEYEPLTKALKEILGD
Sequence of yeast Hsp90-ADP complex (P02829 whole entry, one chain of several): as the sequence (P02829 whole entry, the tested form may be a part) above
Sequence of Hsp90-AMPPNP-Sba1 complex (P02829 whole entry): as the sequence (P02829 whole entry, the tested form may be a part) above
Sequence of Hsp90-AMPPNP-Sba1 complex (P28707 whole entry partner): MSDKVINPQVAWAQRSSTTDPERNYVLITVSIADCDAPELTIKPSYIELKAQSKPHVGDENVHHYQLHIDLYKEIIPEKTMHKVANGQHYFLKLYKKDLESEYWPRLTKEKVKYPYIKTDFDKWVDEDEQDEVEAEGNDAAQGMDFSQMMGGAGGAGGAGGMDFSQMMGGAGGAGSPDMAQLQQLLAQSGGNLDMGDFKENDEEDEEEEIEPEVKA

COC(=O)C1=C(CCN(C)C)N(C)C(CCN(C)C)=C(C(=O)OC)C1c1ccc(C(F)(F)F)cc1 [LA1011]
Kd [1]: 9.7 ± 0.7 µM | ΔH [1]: -5.11 ± 0.187 kcal/mol | ΔS [1]: 6.07 cal/mol/Deg | Kd [2]: 3.8 ± 0.7 µM | ΔH ([2]; ITC, Hsp90α): -0.792 ± 0.0807 kcal/mol | ΔS ([2]; ITC, Hsp90α): 22.2 cal/mol/Deg | N (stoichiometry) ([2]; ITC, human Hsp90α): 0.35 | binding [3]: failed to bind | effect on ATPase activity of Hsp90 [4, 20]: activated the ATPase activity | effect on ATPase activity of Hsp90 ([4]; 10 μM LA1011): marginal effects | stimulation of the ATPase ([4]; 240 μM LA1011): 2 fold | binding [5]: failed to bind | Kd [6]: 66.2 ± 29.7 µM | Kd [7]: 66.2 ± 21.4 µM | LA1011 required to achieve 88% occupancy ([7]; in the presence of ATP): 0.5 mM | Kd [8]: 9.7 ± 0.7 µM | ΔH ([8]; ITC, Hsp90β): -0.6549 ± 0.0435 kcal/mol | ΔS ([8]; ITC, Hsp90β): 20.8 cal/mol/Deg | N (stoichiometry) ([8]; ITC, human Hsp90β): 0.27 | disruption of Hsp90's ability to protect citrate synthase from aggregation ([9]; 0.1–0.2 mM LA1011, 600 nM Hsp90, 45°C): around 50% | fractional occupancy ([9]; calculated as [ligand]/[ligand]+Kd, Kd 13 μM, at 0.1–0.2 mM LA1011): 88–93% | Kd [10]: 80.6 ± 19 µM | Kd [11]: 23.1 ± 1.9 µM | inhibition of luciferase refolding ([12]; 1 mM LA1011, rabbit reticulocyte lysate): around 50% | refolding of luciferase ([12]; 5 mM LA1011, rabbit reticulocyte lysate): completely prevented refolding of luciferase | Kd [13]: 13.5 ± 0.9 µM | N (stoichiometry) ([13]; ITC, Yeast Hsp90): 0.53 | ΔH ([13]; ITC, Yeast Hsp90): -4.863 ± 0.194 kcal/mol | ΔS ([13]; ITC, Yeast Hsp90): 6.24 cal/mol/Deg | LA1011 required to achieve 88% occupancy ([13]; in the absence of ATP): 100 µM | binding [14]: did not interact | neuroprotective effect ([15]; APPxPS1 transgenic mouse model of AD): could protect neurons in the hippocampus, could decrease Tau-accumulation and was able to preserve dendritic spines | levels that had an effect in mouse models ([15]; mouse models): 5 to 10 µM | binding [16]: failed to bind | Kd [17]: 60.6 ± 7.9 µM | ΔH ([17]; ITC, Yeast 546–709): -2.603 ± 0.706 kcal/mol | ΔS ([17]; ITC, Yeast 546–709): 10.7 cal/mol/Deg | heat shock protein co-induction [18]: co-inducers of Hsp70 and Hsp27

COC(=O)C1=C(C)N(C)C(CCN2CCOCC2)=C(C(=O)OC)C1c1ccc(C(F)(F)F)cc1 (stereo not drawn) [LA1014]
Kd [1]: 20.2 ± 3 µM | ΔH [1]: -0.8714 ± 0.145 kcal/mol | ΔS [1]: 18.6 cal/mol/Deg | effect on ATPase activity of Hsp90 [4, 20]: activated the ATPase activity

COC(=O)C1=C(CCN(C)C)N(C)C(CCN(C)C)=C(C(=O)OC)C1c1cc(F)cc(F)c1 [LA1026]
Kd [1]: 48.8 ± 4.7 µM | ΔH [1]: -1.233 ± 0.21 kcal/mol | ΔS [1]: 15.7 cal/mol/Deg | effect on ATPase activity of Hsp90 [4, 20]: activated the ATPase activity

COC1=C2C[C@@H](C)C[C@H](OC)[C@H](O)[C@@H](C)/C=C(\C)[C@H](OC(N)=O)[C@@H](OC)/C=C\C=C(/C)C(=O)NC(=CC1=O)C2=O [geldanamycin, reference compound]
effect on ATPase activity of Hsp90 [4, 20]: inhibition of Hsp90 ATPase activity

Sti1: yeast co-chaperone of Hsp90
Kd [19]: 0.33 ± 0.03 µM
